ChEMBL document CHEMBL1201862, “PubChem BioAssay data set” (2004)
Active and inactive are the calls of the source. No stated cut-off is given here; in the data, actives have a measured IC50 and inactives only a lower limit.

Molecular target: Envelope glycoprotein gp160 (Human immunodeficiency virus 1, UniProt Q6QLK5)
Test: cell-free HIV fusion peptide-binding blockers – biochemical, uHTS, fluorescence dequenching, […] (AID 1986)

Chain of Envelope glycoprotein gp160 (Q6QLK5 whole entry, the tested form may be a part): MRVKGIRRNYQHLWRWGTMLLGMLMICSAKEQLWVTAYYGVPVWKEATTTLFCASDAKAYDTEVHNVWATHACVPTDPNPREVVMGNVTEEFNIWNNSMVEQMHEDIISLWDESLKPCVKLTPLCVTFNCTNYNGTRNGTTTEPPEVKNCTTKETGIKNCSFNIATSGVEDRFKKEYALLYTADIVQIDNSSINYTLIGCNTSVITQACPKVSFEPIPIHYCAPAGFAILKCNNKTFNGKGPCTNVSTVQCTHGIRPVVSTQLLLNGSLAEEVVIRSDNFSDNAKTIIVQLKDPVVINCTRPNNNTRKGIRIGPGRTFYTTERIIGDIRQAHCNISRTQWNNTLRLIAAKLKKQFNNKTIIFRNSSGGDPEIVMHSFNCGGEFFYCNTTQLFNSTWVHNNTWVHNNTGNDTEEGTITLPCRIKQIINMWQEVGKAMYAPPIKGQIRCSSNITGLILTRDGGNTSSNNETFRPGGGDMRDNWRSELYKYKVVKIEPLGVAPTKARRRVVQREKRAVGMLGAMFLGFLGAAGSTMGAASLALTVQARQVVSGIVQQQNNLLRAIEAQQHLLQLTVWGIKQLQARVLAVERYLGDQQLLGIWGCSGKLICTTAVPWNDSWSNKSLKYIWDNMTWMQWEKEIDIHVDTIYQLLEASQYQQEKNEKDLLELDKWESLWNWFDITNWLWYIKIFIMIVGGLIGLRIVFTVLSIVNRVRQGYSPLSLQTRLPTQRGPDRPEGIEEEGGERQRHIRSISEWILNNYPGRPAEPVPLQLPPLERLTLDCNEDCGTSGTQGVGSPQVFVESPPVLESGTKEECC

Question: With O=C(Nc1ccc(C(=O)O)cc1)/C(=C\C=C\c1ccccc1)NC(=O)c1cccc(Br)c1 as the compound, how does the IC50 read?
Answer: 22.6 µM (active)
